Article PMC6315362, “Cytotoxic Potential of the Novel Horseshoe Crab Peptide Polyphemusin III” (Marine Drugs, 2018)
Where a SMILES comes first, the peptide text is derived from it. Bridges are numbered along the chain shown (N, C = ends).

Assays:
[1] = tested on: HL-60 cells; test: Lactate dehydrogenase (LDH)-release assay; type: cell-based, human; settings: HL-60, 1 h of incubation, 1.56–25 μM, RPMI serum-free medium; two independent series of triplicated experiments
Method: The loss of membrane integrity, detected by trypan blue exclusion assay and annexin V-FITC/propidium iodide double staining, was also evaluated by lactate dehydrogenase (LDH)-release. The cytosolic enzyme LDH is released upon cell lysis and therefore can be a marker of cell integrity. The percentage of LDH-leakage from cells enables evaluation of direct cell lysis.
The LDH-release assay (CytoTox 96 Non-Radioactive Cytotoxicity Assay; Promega Corporation, Madison, WI, USA) was performed according to the manufacturer’s protocol. Suspension HL-60 cells (4 × 10^4) were seeded into a 96-well plate in triplicate and incubated for 1 h with various concentrations of polyphemusin III at 100 μL per well in RPMI serum-free medium. Untreated cells served as a control for spontaneous LDH-release and cells treated with 1% Triton X-100 were used as a control for maximal LDH-release. Absorbance was measured at 490 nm using a microplate reader (Eppendorf, Hamburg, Germany). Percent LDH-release was calculated using the following Equation (2):[(experimental LDH-release − spontaneous LDH-release)/(maximal LDH-release − spontaneous LDH-release)] × 100(2)
The dose response curve shown is an average of two independent experiments.

[2] = tested on: Caspase cascade pathway in HL-60 cells; test: Gene expression profiling and Oncobox pathway analysis; type: cell-based, human; settings: versus intact cells, Oncobox
Method: To get a deeper molecular insight into the mechanisms of cell death induced by PM III, we profiled gene expression in the PM III treated (1.25, 2.5, and 5 µM) and intact HL-60 cells. Gene expression profiles were further analyzed using the Oncobox bioinformatical platform to measure activation levels of 376 intracellular signaling pathways. We found a significant inhibition of the Caspase cascade (Figure 6), while the TRAF (tumor necrosis factor receptor (TNF-R)-associated factor) pathway was strongly activated (Figure 7) following the PM III treatment. An additional line of evidence for the non-apoptotic mechanism of the PM III mediated activity was provided by the PTEN pathway. […] The activation levels of all signaling pathways profiled in this study and case-to-normal ratios for the respective genes are shown in Supplementary Table S1. Taken together, these facts rather argue for a non-apoptotic mode of the PM III action.
RNA extraction was performed immediately before preparation of sequencing libraries using a QIAGEN RNeasy Kit (Qiagen, Venlo, Netherlands) following the manufacturer’s protocol. Then, the RNA Integrity Number (RIN) was measured using an Agilent 2100 bio-Analyzer. Agilent RNA 6000 Nano or Qubit RNA Assay Kits were used to measure RNA concentration. A KAPA RNA Hyper with RiboErase (KAPA Biosystems, Wilmington, MA, USA) kit was used for further depletion of ribosomal RNA. […] Library concentrations and quality were measured using a Qubit ds DNA HS Assay kit (Life Technologies, Carlsbad, CA, USA) and Agilent Tapestation (Agilent, Santa Clara, CA, USA). RNA sequencing was performed using Illumina HiSeq 3000 equipment for single-end sequencing, 50 bp read length, for approximately 30 million raw reads per each sample. […]
The SABiosciences knowledge base was used to determine structures of intracellular molecular pathways as described previously. […] CNRs were calculated as the ratios of expression levels of a gene in the experimental samples to average expression levels in the control samples. […]

[3] = tested on: Gram-positive and Gram-negative bacteria; test: Antimicrobial assay, MIC summarised over the panel of strains; type: cell-based; settings: E. coli ML35p, K. pneumoniae (CI 287) and S. aureus 209P
Method: Bacterial test cultures were grown in the Mueller-Hinton (MH) medium at 37 °C to mid-log phase and then diluted with the 2 x MH medium supplemented with 1.8% NaCl. 50 µL of the bacterial suspension with a final cell concentration of 10^6 CFU/mL were added to aliquots of 50 µL of the peptide solutions and serially diluted with sterilized 0.1% bovine serum albumin in 96-well flat-bottom polystyrene microplates (Eppendorf, Hamburg, Germany). Bacterial cells were incubated for 24 h at 37 °C and 900 rpm on the plate thermoshaker (Biosan, Riga, Latvia). The minimum inhibitory concentrations (MIC) were determined as the lowest peptide concentration that prevented growth of a test microorganism observed as visible turbidity. The results were expressed as median values of three independent triplicated experiments. Assessment of antimicrobial activities of the recombinant PM III, other polyphemusins, and tachyplesins was conducted against Gram-negative (Escherichia coli ML-35p, Klebsiella pneumoniae (clinical isolate, CI 287), Pseudomonas aeruginosa PAO1) and Gram-positive (Staphylococcus aureus ATCC 29213, Staphylococcus aureus 209P, Bacillus subtilis B-886, Micrococcus luteus B-1314) bacteria.

CC(C)[C@@H]1NC(=O)[C@H](CCCNC(=N)N)NC(=O)[C@H](Cc2ccccc2)NC(=O)[C@@H](NC(=O)CNC(=O)[C@H](CCCNC(=N)N)NC(=O)[C@@H](N)CCCNC(=N)N)CSSC[C@@H](C(=O)N[C@@H](CCCNC(=N)N)C(=O)O)NC(=O)[C@H](CCCNC(=N)N)NC(=O)[C@H](CCC(N)=O)NC(=O)[C@H](Cc2ccccc2)NC(=O)[C@@H]2CSSC[C@H](NC1=O)C(=O)N[C@@H](Cc1ccc(O)cc1)C(=O)N[C@@H](CCCNC(=N)N)C(=O)NCC(=O)N[C@@H](Cc1ccccc1)C(=O)N2 [PM III, polyphemusin III] (H-RRGCFRVCYRGFCFQRCR-OH; disulfide 4-17, 8-13 (inferred); N-terminus assumed)
LDH-release (cell lysis) [1]: concentration-dependent lysis | Caspase Cascade: PAS (pathway activation strength) ([2]; HL-60, 1.25 μM): -13.08 | Caspase Cascade: PAS (pathway activation strength) ([2]; HL-60, 2.5 μM): -13.96 | Caspase Cascade: PAS (pathway activation strength) ([2]; HL-60, 5 μM): -16.64 | reduction in activity compared to PM I, TP I, and TP III [3]: 4 fold
